In the CheMixHub viscosity set:

Assay: xn = mol fraction of the nth substance listed

O=CC(Cl)(Cl)Cl + CC(C)=O
viscosity [mPa·s], 101 kPa
Conditions | x1 = 0.0713 | x1 = 0.1371 | x1 = 0.2697 | x1 = 0.3708 | x1 = 0.4723 | x1 = 0.5664 | x1 = 0.6561 | x1 = 0.7731 | x1 = 0.8964
298.15 K | 0.4048 | 0.4541 | 0.5494 | 0.6015 | 0.6699 | 0.7342 | 0.7924 | 0.8894 | 0.9679
308.15 K | 0.3678 | 0.4111 | – | 0.5376 | 0.5949 | 0.6484 | 0.7021 | 0.7778 | 0.8506
323.15 K | 0.3231 | 0.3615 | 0.4176 | 0.4606 | 0.5118 | 0.554 | 0.6001 | 0.6568 | 0.7107

O=CC(Cl)(Cl)Cl + CCCC(C)=O
viscosity [mPa·s], 101 kPa
Conditions | x1 = 0.1199 | x1 = 0.2489 | x1 = 0.3714 | x1 = 0.5058 | x1 = 0.6071 | x1 = 0.7288 | x1 = 0.8116 | x1 = 0.9001
298.15 K | 0.524 | 0.595 | 0.6722 | 0.7399 | 0.8153 | 0.8727 | 0.9343 | 0.9935
323.15 K | 0.4084 | 0.458 | 0.5112 | 0.5571 | 0.6 | 0.6402 | 0.6822 | 0.7258

[I-].[Li+] + O
Conditions | viscosity [mPa·s]
293.15 K, 100 kPa, x1 = 0.005076 | 1.025
293.15 K, 101 kPa, x1 = 0.00701 | 1.029
293.15 K, 101 kPa, x1 = 0.01933 | 1.076
293.15 K, 101 kPa, x1 = 0.04884 | 1.205
293.15 K, 101 kPa, x1 = 0.06296 | 1.292
293.15 K, 101 kPa, x1 = 0.08324 | 1.429
293.15 K, 101 kPa, x1 = 0.1073 | 1.656
293.15 K, 101 kPa, x1 = 0.1418 | 2.218
303.15 K, 101 kPa, x1 = 0.0017 | 0.808
303.15 K, 101 kPa, x1 = 0.00416 | 0.813
303.15 K, 101 kPa, x1 = 0.00701 | 0.821
303.15 K, 101 kPa, x1 = 0.01933 | 0.866
303.15 K, 101 kPa, x1 = 0.02768 | 0.895
303.15 K, 101 kPa, x1 = 0.04884 | 0.977
303.15 K, 101 kPa, x1 = 0.06296 | 1.049
303.15 K, 101 kPa, x1 = 0.08324 | 1.178
303.15 K, 101 kPa, x1 = 0.1073 | 1.376
303.15 K, 101 kPa, x1 = 0.1418 | 1.819
310.15 K, 101 kPa, x1 = 0.000205 | 0.6972
310.15 K, 101 kPa, x1 = 0.00126 | 0.6998
310.15 K, 101 kPa, x1 = 0.001978 | 0.7017
310.15 K, 101 kPa, x1 = 0.002695 | 0.7035
310.15 K, 101 kPa, x1 = 0.003679 | 0.706
310.15 K, 101 kPa, x1 = 0.005197 | 0.7098
310.15 K, 101 kPa, x1 = 0.005988 | 0.7118
323.15 K, 101 kPa, x1 = 0.0017 | 0.555
323.15 K, 101 kPa, x1 = 0.00416 | 0.561
323.15 K, 101 kPa, x1 = 0.00701 | 0.567
323.15 K, 101 kPa, x1 = 0.01933 | 0.602
323.15 K, 101 kPa, x1 = 0.02768 | 0.628
323.15 K, 101 kPa, x1 = 0.04884 | 0.693
323.15 K, 101 kPa, x1 = 0.06296 | 0.752
323.15 K, 101 kPa, x1 = 0.08324 | 0.849
323.15 K, 101 kPa, x1 = 0.1073 | 1.002
323.15 K, 101 kPa, x1 = 0.1418 | 1.344

CCOCCOCC + COCCOCCOCCO
viscosity [mPa·s], 101.33 kPa
Conditions | 298.15 K | 308.15 K
x2 = 0.0126 | 0.622 | 0.539
x2 = 0.0328 | 0.652 | 0.561
x2 = 0.052 | 0.688 | 0.586
x2 = 0.0807 | 0.73 | 0.617
x2 = 0.1339 | 0.824 | 0.691
x2 = 0.1806 | 0.917 | 0.765
x2 = 0.2394 | 1.047 | 0.872
x2 = 0.2918 | 1.18 | 0.978
x2 = 0.342 | 1.332 | 1.097
x2 = 0.385 | 1.473 | 1.198
x2 = 0.4103 | 1.588 | 1.262
x2 = 0.4604 | 1.801 | 1.417
x2 = 0.5091 | 2.04 | 1.573
x2 = 0.5505 | 2.273 | 1.725
x2 = 0.5978 | 2.561 | 1.923
x2 = 0.6522 | 2.935 | 2.167
x2 = 0.7117 | 3.396 | 2.476
x2 = 0.7976 | 4.169 | 2.989
x2 = 0.8577 | 4.791 | 3.415
x2 = 0.9256 | 5.588 | 3.957
x2 = 0.9633 | 6.103 | 4.311

O=CC(Cl)(Cl)Cl + C[N+](=O)[O-]
viscosity [mPa·s], 101.33 kPa
Conditions | x1 = 0.1002 | x1 = 0.2003 | x1 = 0.2963 | x1 = 0.4004 | x1 = 0.4966 | x1 = 0.5833 | x1 = 0.6948 | x1 = 0.8007 | x1 = 0.8965
298.15 K | 0.661 | 0.7023 | 0.7591 | 0.8043 | 0.8435 | 0.8874 | 0.9389 | 0.9876 | 1.028
323.15 K | 0.5186 | 0.5507 | 0.5793 | 0.6238 | 0.6316 | 0.6661 | 0.6895 | 0.7155 | 0.7491

CCCCCCCCCC(=O)OC + CCCCCCCCCCC
viscosity [mPa·s], 100 kPa
Conditions | x2 = 0.0986 | x2 = 0.1998 | x2 = 0.2992 | x2 = 0.3988 | x2 = 0.4974 | x2 = 0.5994 | x2 = 0.6999 | x2 = 0.7993 | x2 = 0.899
293.15 K | 1.97 | 1.831 | 1.717 | 1.611 | 1.516 | 1.425 | 1.342 | 1.272 | 1.219
298.15 K | 1.783 | 1.662 | 1.559 | 1.468 | 1.386 | 1.306 | 1.234 | 1.169 | 1.124
303.15 K | 1.625 | 1.517 | 1.427 | 1.344 | 1.268 | 1.198 | 1.137 | 1.08 | 1.039
308.15 K | 1.487 | 1.392 | 1.311 | 1.237 | 1.171 | 1.109 | 1.053 | 1.002 | 0.964
313.15 K | 1.368 | 1.283 | 1.211 | 1.145 | 1.083 | 1.029 | 0.978 | 0.932 | 0.897
318.15 K | 1.264 | 1.187 | 1.122 | 1.062 | 1.007 | 0.958 | 0.912 | 0.871 | 0.838
323.15 K | 1.172 | 1.102 | 1.044 | 0.99 | 0.939 | 0.894 | 0.853 | 0.815 | 0.786

CCCCCCCCCCCCCCCC + CCCCO
101 kPa
Conditions | viscosity [mPa·s]
298.15 K, x2 = 0.3 | 2.675
323.15 K, x2 = 0.8 | 1.435

CCCCCCCCCCCCCCCC + CCCCCCCC
Conditions | viscosity [mPa·s]
298.15 K, 101.33 kPa, x2 = 0.1039 | 2.656
298.15 K, 101.33 kPa, x2 = 0.2122 | 2.305
298.15 K, 101.33 kPa, x2 = 0.3109 | 1.973
298.15 K, 101.33 kPa, x2 = 0.4114 | 1.682
298.15 K, 101.33 kPa, x2 = 0.5033 | 1.452
298.15 K, 101.33 kPa, x2 = 0.6068 | 1.205
298.15 K, 101.33 kPa, x2 = 0.7096 | 0.982
298.15 K, 101.33 kPa, x2 = 0.8067 | 0.7957
298.15 K, 101.33 kPa, x2 = 0.9049 | 0.6421
318.16 K, 101 kPa, x1 = 0.15 | 0.5758
318.16 K, 101 kPa, x1 = 0.3499 | 0.8378
318.16 K, 101 kPa, x1 = 0.5001 | 1.073
318.16 K, 101 kPa, x1 = 0.6398 | 1.317
318.16 K, 101 kPa, x1 = 0.7996 | 1.627
